Reference: US20030056232A1, “Animal showing schizophrenia-like abnormality in cognitive behaviors and method of constructing the same” (priority 2000, published 2003)

How the values were obtained:
Assay type in all cases: in vivo, rat
SD rats [1] = experiment: Motor activity: line crossing (horizonal activity) and rearing (vertical activity); details: for effect on vertical activity of the EGF rat groups: chronic administration for three weeks, tested 48 hours after the final administration, p<0.05 vs EGF/VEH
Procedure: The locomotor activities of the animals were measured at postnatal days 24 and 52. At postnatal day 24, it was measured using automated Activity Monitor (Neuro Science). At postnatal day 53, using a box having the size of 51×51×80 cm with lines of every 17 cms, the number of line crossing (horizonal activity) and the number of learing counts (vertical activity) within 10 minutes were measured.
The mean numbers (±SEM) of horizonal activity (Line Cross) and vertical activity (Rearing) at postnatal days 24 (P24) and 52 (P52) are shown in FIG. 5. FIG. 5A is the result obtained at postnatal day 24 (n=15, 8 males and 7 females) and FIG. 5B is the result obtained at postnatal day 52 (n=10, 5 males and 5 females). In FIG. 5, the left vertical axis indicates the number of the horizonal activity, while the right vertical axis indicates the number of the vertical activity. The left columns indicate the number of line crossing and the right columns indicate the number of learing counts, respectively. Moreover, the white columns indicate the control group (CON) and the black columns indicate the epidermal EGF administrated group, respectively.
The effect of anti-psychotic medicine on motor activity was also investigated using rats of postnatal day 52. The results investigated on four groups are shown in FIG. 6, namely 1) the control rats group (CON/VEH) with saline administration as a vehicle, (2) the EGF administrated/saline injected group (EGF/VEH, n=10), (3) the EGF administered/clozapin injected group (EGF/CLP, n=10) and (4) the EGF administered/haloperidol injected group (EGF/HAL, n=6). The same numbers of male and female are used in each of the groups. Saline, haloperidol and clozapine were administrated for three weeks, and each group was tested 48 hours after the final administration. Moreover, the asterisk mark (*) and the sharp mark (#) indicate significant difference as compared with the CON/VEH group and EGF/VEH group, respectively (* p<0.05, #p<0.05). […] Meanwhile, administration of these medicines was not effective on the horizonal activity.

SD rats [2] = experiment: Social interaction test (sniffing behavior against unfamiliar partner); details: postnatal day 52; for effect on reduced sniffing behavior in the EGF administrated group: pretreated for three weeks, test 48 hours after the final injection
From the text: Social interaction test is a test that makes an index of the schizophrenic patient's trait that they dislike to make contact with other individuals and keeps away from society, can be made to an index. In general, the sniffling behavior of the animals, usually observed when an animal meets to an unknown individual, is observed. In general, in schizophrenic patients and in schizophrenic model animals, decrease of this behavior has been reported.
Moreover, the abnormality in social interaction of the EGF administrated rats was investigated according to the method of File et al. Using two rats of postnatal day 52, sniffling behavior between two rats was observed and the time of sniffling behavior was used as an index of anxiety. […] In concrete, the sniffling behavior was observed under high light level and unfamiliar condition in the opened space. The both groups of animals are videotaped and sniffing behaviors of the animals against those of the partner was recorded (FIG. 7).
In FIG. 7, the mean times (±SEM) of the sniffing behavior were shown. The investigation was performed on the four groups of (1) the control rats group (CON/VEH) with saline administration as a vehicle, (2) the EGF administrated/saline injected group (EGF/VEH, n=10), (3) the EGF administered/clozapin injected group (EGF/CLOZ, n=10) and (4) the EGF administered/haloperidol injected group (EGF/HAL, n=6). The EGF administrated rats were pretreated by clozapine or haloperidol for three weeks and the test was performed after 48 hours of the final injection on each group. The asterisk marks indicate significant difference as compared with the CON/VEH group (** p<0.01). […] Moreover, the reduced sniffing behavior in the EGF adinistrated group recovered by injection of clozapine (EGF/CLOZ). Meanwhile, halopelidol was not effective to recover the sniffing behavior (EGF/HAL).

SD rats [3] = experiment: Prepulse inhibition (PPI) of acoustic startle response; details: for prepulse inhibition of EGF administered group under clozapine (EGF CZP) vs cytochrome-C group (Cont CZP): peritoneal, everyday from postnatal day 21; for effect on prepulse inhibition in EGF administered rats: administration for one week, test 23 hours after the final administration, haloperidol 0.3 mg/kg peritoneal (FIG. 4A); for prepulse inhibition, EGF administrated group vs cytochrome-C administered group: EGF 1.75 mg/kg s.c. five times P2-P10, p<0.05
From the text: As the method used to evaluate the sensorimotor and behavioral abnormalities, behavioristic measurements such as prepulse inhibition of startle response, latent inhibition, social interaction, motor activity of the animal, can be mentioned. The prepulse inhibition of startle response is a test to evaluate the ability of perception-motor activity, using the startle response as an index and the startle response can be evaluated in human being and animal in common. In this test, evaluation of attention deficit and abnormality in information processing in brain can be achieved scientifically and objectively. These are considered to be the main factors involved in schizophrenic pathology. […] This test is carried out by measurement of such reaction. Such decrease caused by the prepulse is called “prepulse inhibition”.
(§1) SD rats (Nippon SLC) from postnatal day 2 were used as the test animals. Human recombinant epidermal growth factor (EGF; Higeta Shoyu) and cytochrome-C (Sigma) were dissolved in physiological saline at 70 μL/mL. From postnatal day 2, 25 μL of the solution per 1 g of the body weights of rats (each 1.75 mg/kg) was subcutaneously administered to the rat at the nape of the neck every other day. This operation was repeated five times until postnatal day 10. From postnatal day 21, the startle response and the prepulse inhibition were measured in a startled chamber (San diego Instruments). That is, acoustic stimulus was used as the sensory stimulation to induce startle response. As a prepulse, acoustic stimuli at the intensity 5 to 15 db above the environmental noise (background noise) was given. After 100 milliseconds, a pulse stimuli at the intensity of 120 db was given. The extent of the response obtained under combination of prepulse and 120 db was divided by that obtained under 120 db alone (%) to obtain response ratio. The response ratio was subtracted from 100 and it was designated prepulse inhibition (PPI). The calculation formula used to calculate the prepulse inhibition (PPI) is shown below. [formula]
The effect of 8-Chloro-11-(4-methyl-1-piperazinyl)-5H-dibenzo[b,e][1,4]-diazepine (clozapine: Sigma-Aldrich Fine Chemical Co.Ltd.), recognized to be a therapeutic agent for schizophrenia of human beings, was evaluated on the present model animal to evaluate the adequacy of this model. To the human recombinant EGF administered group and the control group (cytochrome-C administered), clozapine was peritoneally administrated everyday. This administration was performed from postnatal day 21 and chronic abnormality of prepulse inhibition firstly occurs around this period. The prepulse inhibition (PPI) was measured at the postnatal days 30 (P30), 33 (P33) and 37 (P37) (FIG. 3). The result at postnatal day 30 (P30) is shown in FIG. 3A, the result at postnatal day 33 (P33) is shown in FIG. 3B, and the result at postnatal day 37 (P37) is shown in FIG. 3C, respectively.
Moreover, the effect of 4-(4-[p-Chlorophenyl]-4-hydroxypiperidino)-4′-fluorobutyrophenone (Haloperidol: Sigma-Aldrich Fine Chemical Co.Ltd.) was also evaluated. Haloperidol was peritoneally administrated at a dose of 0.3 mg/kg. In FIG. 4, investigation was performed on the four groups of: (1) the control rats group (CON/VEH) with saline administration (as a vehicle), (2) the EGF administrated/saline injected group (EGF/VEH, n=10), (3) the EGF administered/clozapin injected group (EGF/CLP, n=10) and (4) the EGF administered/haloperidol injected group (EGF/HPD, n=6). The administration of saline, clozapine and haloperidol continued for one week. Twenty-three hours after the final administration, the test was performed on the rats of the respective group.

SD rats [4] = experiment: Active avoidance response in shuttle box (learning ability)
Procedure: Furthermore, the learning ability was investigated by active avoidance response. The active avoidance test was performed in a shuttle box, using rats of postnatal day 51-60 (10 trials/day). The conditioning stimulus (CS) adopted here was a stimuli by noise of 80 dB tone and room light for 5 s. When the CS was on, the test animals had to cross the other side of the shuttle box apparatus (avoidance response) in order to turn it off and avoid the appearance of the unconditioned stimulus (US) described below. As the US, an electric shock by conducting 0.6-mA intensity of constant current for 10 s was utilized. Moreover, the test animals were investigated whether they are capable of avoiding the electrical shock by learning.
In FIG. 8, the percentages (±SEM) of the avoidance response are shown. In FIG. 8, the open circle symbols indicate cytochrome-c treated control group (CON: n=10), and the closed triangle symbols indicate EGF-treated group (EGF: n=10), respectively. […] There was also no difference between these two groups in the latency of response or the number of crossings between the two sides of the shuttle box.

SD rats [5] = experiment: Startle response to acoustic stimuli of 120 db; details: % in comparison with CON/VEH group (FIG. 4B)
Procedure: as §1, with “The response ratio was subtracted from 100 and it was designated prepulse inhibition (PPI). The calculation formula used to calculate the prepulse inhibition (PPI) is shown below. [formula]” left out
The results of the prepulse inhibition (FIG. 2A) and the startle response (FIG. 2B) analyzed in accordance to postnatal days are shown in FIG. 2. […]
Moreover, the effect of 4-(4-[p-Chlorophenyl]-4-hydroxypiperidino)-4′-fluorobutyrophenone (Haloperidol: Sigma-Aldrich Fine Chemical Co.Ltd.) was also evaluated. […]

[6] = postnatal day 51-60, n=10 per group

Row | Molecule | effect on vertical activity of the EGF rat groups (SD rats [1]; postnatal day 52) | effect on reduced sniffing behavior in the EGF administrated group (SD rats [2]) | prepulse inhibition of EGF administered group under clozapine (EGF CZP) vs cytochrome-C group (Cont CZP) (SD rats [3]; postnatal day 30, 9th day of clozapine treatment) | prepulse inhibition of EGF administered group under clozapine (EGF CZP) vs cytochrome-C group (Cont CZP) (SD rats [3]; postnatal day 33) | prepulse inhibition of EGF administered group under clozapine (EGF CZP) vs cytochrome-C group (Cont CZP) (SD rats [3]; postnatal day 37) | effect on prepulse inhibition in EGF administered rats (SD rats [3]; prepulse 75 db) | learning ability of the EGF-treated rats (SD rats [4]; adult phase (postnatal day 51-60)) | ability to escape from the electric shock, EGF-treated group vs cytochrome-c control group (SD rats [4]; postnatal day 51-60, 10 trials/day, n=10 per group) | latency of response, EGF-treated group vs control group (SD rats [4]; [6]) | number of crossings between the two sides of the shuttle box, EGF-treated group vs control group (SD rats [4]; [6]) | number of horizonal activity (line cross), EGF group vs cytochrome-C group (CON) (SD rats [1]; postnatal day 24, n=15) | number of vertical activity (rearing), EGF group vs cytochrome-C group (CON) (SD rats [1]; postnatal day 24, n=15) | number of vertical activity (rearing), EGF group vs cytochrome-C group (SD rats [1]; postnatal day 52, n=10, counts within 10 minutes) | startle response against acoustic stimuli of 120 db, EGF administered groups vs CON/VEH group (SD rats [5]) | sniffing behavior against the unfamiliar partner, EGF/VEH vs control rats (SD rats [2]; high light level, unfamiliar condition, p<0.01) | prepulse inhibition, EGF administrated group vs cytochrome-C administered group (SD rats [3]; postnatal day 30, prepulse intensities 80 db and 85 db) | prepulse inhibition, EGF administrated group vs cytochrome-C administered group (SD rats [3]; postnatal day 33, prepulse intensities 80 db and 85 db) | prepulse inhibition, EGF administrated group vs cytochrome-C administered group (SD rats [3]; postnatal day 37, prepulse intensities 75 db, 80 db and 85 db) | prepulse inhibition and startle response in accordance to postnatal days, EGF group vs cytochrome-C control group (SD rats [3]; prepulse 75 db, postnatal days 21, 28, 30, 37, 46, 51, 60 and 90, n=10 per group (FIG. 2))
1 | CN1CCN(C2=Nc3cc(Cl)ccc3Nc3ccccc32)CC1 [clozapine, 8-Chloro-11-(4-methyl-1-piperazinyl)-5H-dibenzo[b,e][1,4]-diazepine] | decreased significantly | recovered | significant abnormality in the prepulse inhibition remained | significant difference in prepulse inhibition of the EGF administered group (EGF CZP) disappeared | significant difference in prepulse inhibition of the EGF administered group (EGF CZP) disappeared | significant improvement in prepulse inhibition |  |  |  |  |  |  |  |  |  |  |  |  | 
2 | O=C(CCCN1CCC(O)(c2ccc(Cl)cc2)CC1)c1ccc(F)cc1 [haloperidol, 4-(4-[p-Chlorophenyl]-4-hydroxypiperidino)-4′-fluorobutyrophenone] | decreased significantly | not effective |  |  |  | such effect was not observed |  |  |  |  |  |  |  |  |  |  |  |  | 
3 | EGF: Human recombinant epidermal growth factor (Higeta Shoyu), protein factor administered to juvenile rats to prepare the schizophrenic model animal (NSDSECPLSHDGYCLHDGVCMYIEALDKYACNCVVGYIGERCQYRDLKWWELR; Epidermal growth factor; UniProt P01133 971-1023, looked up) |  |  |  |  |  |  | appeared to be normal | no difference | no difference | no difference | no significant difference | no significant difference | significant difference was observed | significant stronger | reduced significantly | significant decrease | significant decrease | significant decrease | significant difference was recognized after postnatal day 28
